Assay results: patent US10202360B2 (CELGENE QUANTICEL RESEARCH, INC., priority 2016, dated 2019)
pIC50: −log10 of the molar value.

These compounds were tested against CREBBP (Homo sapiens (Human), UniProt Q92793) (assay: In vitro enzyme inhibition assay - CREBBP inhibition (AlphaScreen, biotinylated H4-tetraacetyl peptide)). Conditions: Table 28; AlphaScreen, H4-tetraacetyl peptide.
Type: binding
Method: Determination of the IC50 for the CREBBP inhibitors disclosed herein was performed as follows: CREBBP was cloned and expressed in E. Coli as His-tag protein and purified by Nickel affinity and gel-filtration chromatography. […] CREBBP binding and inhibition was assessed by monitoring the interaction of biotinylated H4-tetraacetyl peptide (AnaSpec, H4K5/8/12/16(Ac), biotin-labeled) with the target using the AlphaScreen technology (Perkin Elmer). In a 384-well ProxiPlate CREBBP (50 nM final) was combined with peptide (20 nM final) in 50 mM HEPES (pH 7.3), 10 mM NaCl, 0.25 mM TCEP, 0.1% (w/v) BSA, and 0.005% (w/v) Brij-35 either in the presence of DMSO (final 0.4% DMSO) or compound dilution series in DMSO. After 20-minute incubation at room temperature, Alpha streptavidin donor beads and Nickel Chelate acceptor beads were added to a final concentration of 5 μg/mL. After two hours of equilibration, plates were read on an Envision instrument and the IC50 was calculated using a four parameter non-linear curve fit.
The ability of the compounds disclosed herein to inhibit CBP activity was quantified and the respective IC50 value was determined.

CREBBP, sequence (Q92793 1081-1197): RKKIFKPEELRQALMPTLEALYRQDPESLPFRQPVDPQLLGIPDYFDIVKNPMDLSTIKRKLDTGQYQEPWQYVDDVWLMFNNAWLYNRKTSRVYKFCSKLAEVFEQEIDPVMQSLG

pIC50, > 6.30:
Cc1cc(-c2cc(NS(=O)(=O)C(C)C)nc(Oc3cc(Cl)ccc3Cl)n2)cn(C)c1=O [Example 1, Propane-2-sulfonic acid [2-(2,5-dichloro-phenoxy)-6-(1,5-dimethyl-6-oxo-1,6-dihydro-pyridin-3-yl)-pyrimidin-4-yl]-amide]
Cc1ccc(C)c(Oc2nc(NS(=O)(=O)C(C)C)cc(-c3cc(C)c(=O)n(C)c3)n2)c1 [Example 2, Propane-2-sulfonic acid [6-(1,5-dimethyl-6-oxo-1,6-dihydro-pyridin-3-yl)-2-(2,5-dimethyl-phenoxy)-pyrimidin-4-yl]-amide]
COc1ccc(C)cc1Oc1nc(NS(=O)(=O)C(C)C)cc(-c2cc(C)c(=O)n(C)c2)n1 [Example 4, Propane-2-sulfonic acid [6-(1,5-dimethyl-6-oxo-1,6-dihydro-pyridin-3-yl)-2-(2-methoxy-5-methyl-phenoxy)-pyrimidin-4-yl]-amide]
Cc1ccc(Cl)c(Oc2nc(NS(=O)(=O)C(C)C)cc(-c3cc(C)c(=O)n(C)c3)n2)c1 [Example 5, Propane-2-sulfonic acid [2-(2-chloro-5-methyl-phenoxy)-6-(1,5-dimethyl-6-oxo-1,6-dihydro-pyridin-3-yl)-pyrimidin-4-yl]-amide]
Cc1ccc(Cl)cc1Oc1nc(NS(=O)(=O)C(C)C)cc(-c2cc(C)c(=O)n(C)c2)n1 [Example 6, Propane-2-sulfonic acid [2-(5-chloro-2-methyl-phenoxy)-6-(1,5-dimethyl-6-oxo-1,6-dihydro-pyridin-3-yl)-pyrimidin-4-yl]-amide]
Cc1ccc(C#N)cc1Oc1nc(NS(=O)(=O)C(C)C)cc(-c2cc(C)c(=O)n(C)c2)n1 [Example 7, Propane-2-sulfonic acid [2-(5-cyano-2-methyl-phenoxy)-6-(1,5-dimethyl-6-oxo-1,6-dihydro-pyridin-3-yl)-pyrimidin-4-yl]-amide]
COc1cccc(C)c1Oc1nc(NS(=O)(=O)C(C)C)cc(-c2cc(C)c(=O)n(C)c2)n1 [Example 8, Propane-2-sulfonic acid [6-(1,5-dimethyl-6-oxo-1,6-dihydro-pyridin-3-yl)-2-(2-methoxy-6-methyl-phenoxy)-pyrimidin-4-yl]-amide]
COc1ccc(C#N)cc1Oc1nc(NS(=O)(=O)C(C)C)cc(-c2cc(C)c(=O)n(C)c2)n1 [Example 9, Propane-2-sulfonic acid [2-(5-cyano-2-methoxy-phenoxy)-6-(1,5-dimethyl-6-oxo-1,6-dihydro-pyridin-3-yl)-pyrimidin-4-yl]-amide]
CCCCS(=O)(=O)Nc1cc(-c2cc(C)c(=O)n(C)c2)nc(Oc2cc(C#N)ccc2OC)n1 [Example 10, Butane-1-sulfonic acid [2-(5-cyano-2-methoxy-phenoxy)-6-(1,5-dimethyl-6-oxo-1,6-dihydro-pyridin-3-yl)-pyrimidin-4-yl]-amide]
CCCCS(=O)(=O)Nc1cc(-c2cc(C)c(=O)n(C)c2)nc(Oc2c(C#N)cccc2OC)n1 [Example 12, Butane-1-sulfonic acid [2-(2-cyano-6-methoxy-phenoxy)-6-(1,5-dimethyl-6-oxo-1,6-dihydro-pyridin-3-yl)-pyrimidin-4-yl]-amide]
CCCCS(=O)(=O)Nc1cc(-c2cc(C)c(=O)n(C)c2)nc(Oc2cc(Cl)ccc2Cl)n1 [Example 13, Butane-1-sulfonic acid [2-(2,5-dichloro-phenoxy)-6-(1,5-dimethyl-6-oxo-1,6-dihydro-pyridin-3-yl)-pyrimidin-4-yl]-amide]
CCCCS(=O)(=O)Nc1cc(-c2cc(C)c(=O)n(C)c2)nc(Oc2cc(C)ccc2Cl)n1 [Example 15, Butane-1-sulfonic acid [2-(2-chloro-5-methyl-phenoxy)-6-(1,5-dimethyl-6-oxo-1,6-dihydro-pyridin-3-yl)-pyrimidin-4-yl]-amide]
CCCCS(=O)(=O)Nc1cc(-c2cc(C)c(=O)n(C)c2)nc(Oc2ccccc2Cl)n1 [Example 16, Butane-1-sulfonic acid [2-(2-chloro-phenoxy)-6-(1,5-dimethyl-6-oxo-1,6-dihydro-pyridin-3-yl)-pyrimidin-4-yl]-amide]
Cc1cc(-c2cc(NS(=O)(=O)C(C)C)nc(Oc3c(F)cccc3F)n2)cn(C)c1=O [Example 17, Propane-2-sulfonic acid [2-(2,6-difluoro-phenoxy)-6-(1,5-dimethyl-6-oxo-1,6-dihydro-pyridin-3-yl)-pyrimidin-4-yl]-amide]
CCCCS(=O)(=O)Nc1cc(-c2cc(C)c(=O)n(C)c2)nc(Oc2c(F)cccc2F)n1 [Example 18, Butane-1-sulfonic acid [2-(2,6-difluoro-phenoxy)-6-(1,5-dimethyl-6-oxo-1,6-dihydro-pyridin-3-yl)-pyrimidin-4-yl]-amide]
CCCCS(=O)(=O)Nc1cc(-c2cc(C)c(=O)n(C)c2)nc(Oc2c(C)cccc2F)n1 [Example 19, Butane-1-sulfonic acid [6-(1,5-dimethyl-6-oxo-1,6-dihydro-pyridin-3-yl)-2-(2-fluoro-6-methyl-phenoxy)-pyrimidin-4-yl]-amide]
CCCS(=O)(=O)Nc1cc(-c2cc(C)c(=O)n(C)c2)nc(Oc2c(F)cccc2F)n1 [Example 20, Propane-1-sulfonic acid [2-(2,6-difluoro-phenoxy)-6-(1,5-dimethyl-6-oxo-1,6-dihydro-pyridin-3-yl)-pyrimidin-4-yl]-amide]
CCCS(=O)(=O)Nc1cc(-c2cc(C)c(=O)n(C)c2)nc(Oc2c(C)cccc2F)n1 [Example 21, Propane-1-sulfonic acid [6-(1,5-dimethyl-6-oxo-1,6-dihydro-pyridin-3-yl)-2-(2-fluoro-6-methyl-phenoxy)-pyrimidin-4-yl]-amide]
CCCCS(=O)(=O)Nc1cc(-c2cc(C)c(=O)n(C)c2)nc(Oc2c(C)cccc2C#N)n1 [Example 22, Butane-1-sulfonic acid [2-(2-cyano-6-methyl-phenoxy)-6-(1,5-dimethyl-6-oxo-1,6-dihydro-pyridin-3-yl)-pyrimidin-4-yl]-amide]
CCCS(=O)(=O)Nc1cc(-c2cc(C)c(=O)n(C)c2)nc(Oc2c(C)cccc2C#N)n1 [Example 23, Propane-1-sulfonic acid [2-(2-cyano-6-methyl-phenoxy)-6-(1,5-dimethyl-6-oxo-1,6-dihydro-pyridin-3-yl)-pyrimidin-4-yl]-amide]
Cc1cccc(C#N)c1Oc1nc(NS(=O)(=O)C(C)C)cc(-c2cc(C)c(=O)n(C)c2)n1 [Example 24, Propane-2-sulfonic acid [2-(2-cyano-6-methyl-phenoxy)-6-(1,5-dimethyl-6-oxo-1,6-dihydro-pyridin-3-yl)-pyrimidin-4-yl]-amide]
Cc1cc(Cl)cc(Cl)c1Oc1nc(NS(C)(=O)=O)cc(-c2cc(C)c(=O)n(C)c2)n1 [Example 25, N-[2-(2,4-Dichloro-6-methyl-phenoxy)-6-(1,5-dimethyl-6-oxo-1,6-dihydro-pyridin-3-yl)-pyrimidin-4-yl]-methanesulfonamide]
CCS(=O)(=O)Nc1cc(-c2cc(C)c(=O)n(C)c2)nc(Oc2c(C)cc(Cl)cc2Cl)n1 [Example 26, Ethanesulfonic acid [2-(2,4-dichloro-6-methyl-phenoxy)-6-(1,5-dimethyl-6-oxo-1,6-dihydro-pyridin-3-yl)-pyrimidin-4-yl]-amide]
CCCS(=O)(=O)Nc1cc(-c2cc(C)c(=O)n(C)c2)nc(Oc2c(C)cc(Cl)cc2Cl)n1 [Example 27, Propane-1-sulfonic acid [2-(2,4-dichloro-6-methyl-phenoxy)-6-(1,5-dimethyl-6-oxo-1,6-dihydro-pyridin-3-yl)-pyrimidin-4-yl]-amide]
CCCCS(=O)(=O)Nc1cc(-c2cc(C)c(=O)n(C)c2)nc(Oc2c(C)cc(Cl)cc2Cl)n1 [Example 28, Butane-1-sulfonic acid [2-(2,4-dichloro-6-methyl-phenoxy)-6-(1,5-dimethyl-6-oxo-1,6-dihydro-pyridin-3-yl)-pyrimidin-4-yl]-amide]
Cc1cc(Cl)cc(Cl)c1Oc1nc(NS(C)(=O)=O)cc(-c2ccc(=O)n(C)c2)n1 [Example 29, N-[2-(2,4-Dichloro-6-methyl-phenoxy)-6-(1-methyl-6-oxo-1,6-dihydro-pyridin-3-yl)-pyrimidin-4-yl]-methanesulfonamide]
CCS(=O)(=O)Nc1cc(-c2ccc(=O)n(C)c2)nc(Oc2c(C)cc(Cl)cc2Cl)n1 [Example 30, Ethanesulfonic acid [2-(2,4-dichloro-6-methyl-phenoxy)-6-(1-methyl-6-oxo-1,6-dihydro-pyridin-3-yl)-pyrimidin-4-yl]-amide]
CCCS(=O)(=O)Nc1cc(-c2ccc(=O)n(C)c2)nc(Oc2c(C)cc(Cl)cc2Cl)n1 [Example 31, Propane-1-sulfonic acid [2-(2,4-dichloro-6-methyl-phenoxy)-6-(1-methyl-6-oxo-1,6-dihydro-pyridin-3-yl)-pyrimidin-4-yl]-amide]
